“Also recorded” adds a separate entry of the source.
How the values were obtained:
[1] = test system: S. invicta sNPF receptor (HA-tagged, stably expressed in CHO-K1 cells); test: Inhibition of forskolin-stimulated intracellular cAMP in SisNPFR-C6E8 cell line (cAMP EIA); assay type: cell-based, Solenopsis invicta; conditions: for Activity on the receptor (change of forskolin-stimulated cAMP), result in words: forskolin 10 µM, peptide at 1 µM (analogous sNP(F) tested at 10 nM and 1 µM), three biological replicates; for EC50: 50 µM Ro-20-1724, forskolin 10 µM with 0-10 µM peptide (10 concentrations), 1 h, 37°C, three independent biological replicates
Method: For the functional characterization of S. invicta sNPFR, stably transformed cell lines were established as described. In brief, CHO-K1 cells were obtained from the American Type Culture Collection (ATCC, Manassas, VA, USA) and grown as described in a 5% CO2 humidified incubator at 37°C. For transfection, CHO-K1 cells were seeded into T-25 tissue culture flasks and allowed to grow overnight until 50% confluent. Cells were transfected in serum-free Opti-MEM medium (Life Technologies, Gaithersburg, MD, USA) with the cationic lipid reagent Lipofectin (Life Technologies) (6 µl) and 2 µg of the expression construct according to the manufacturer’s protocol. After 6 h, the lipofectin-containing medium was removed and replaced with F12K (Sigma, St. Louis, MO, USA) medium plus 10% fetal bovine serum (EquiTech Bio, Kerrville, TX, USA) without antibiotic. After 48 h of growth, the cells were split into the same medium but with antibiotic Geneticin (Invitrogen) (800 µg/ml), and selection continued for 5 weeks followed by isolation of clonal lines. A total of 14 clonal cell lines were obtained by dilution and selection of single cells distributed in a 96-well plate (96 theoretical single cells). Presence of S. invicta sNPFR transcript was verified by screening by RT-PCR by pooling aliquots from clonal cell lines. For this, total RNA was isolated by RNeasy Mini kit (Qiagen) and used for cDNA synthesis with SuperScript III First-Strand Synthesis System followed by RT-PCR with receptor forward sNPFRf1 and reverse sNPFRr1 primers (Table S1). The cell lines from groups that generated the RT-PCR product of the expected size were further screened. Single positive clonal cell lines were subjected to functional assay using S. invicta sNPF1 and sNPF2 as ligands. Cell line C6 was further selected to obtain a line designated SisNPFR-C6E8, which was the best performing cell line and was chosen for receptor functional characterization.
To quantify changes in intracellular cAMP, 1×10^5 cells of SisNPFR-C6E8 were seeded in each well of a 6-well plate and incubated at 37°C in presence of 5% CO2 for 24 h to allow cell attachment. Cell culture medium [F12 K medium with 10% fetal bovine serum and 400 µg/ml of Geneticin] was then replaced with the same fresh medium as above and the cells were grown for additional 48 h until they reached 90–100% confluence. The cells were rinsed twice with F12 K medium only (serum and antibiotic free) and then incubated in 50 µM Ro-20-1724 phosphodiesterase inhibitor (Santa Cruz Biotechnology, Santa Cruz, CA, USA) in F12 K medium. Forskolin (10 µM) (Cayman Chemical, Ann Arbor, MI, USA) or forskolin (10 µM) with 0–10 µM solutions of ligands (10 concentrations), respectively, were added to the cells and incubated at 37°C in the presence of 5% CO2 for 1 h. Cells were rinsed once with F12 K medium, serum- and antibiotic-free, followed by lysis with 274 µl of 0.1 M HCl at RT for 20 min and centrifugation at 1000 g for 10 min. The supernatant was used for cAMP measurements using the cyclic AMP EIA Kit (Cayman Chemical) following the manufacturer’s protocol. In brief, 50 µl of supernatants and cAMP standards were loaded in a 96-well plate, and the cAMP EIA buffer was used as blank. cAMP AChE tracer (50 µl) (cAMP bound to acetylcholinesterase for competition) and 50 µl of anti-cAMP specific antiserum were added. Then the mixture was incubated at 4°C for 18 h. The mixture was removed and the plate was rinsed five times with wash buffer containing 0.05% polysorbate-20. After washing, the plate was developed at RT for 2 h using the Ellman’s reagent and the OD (412 nm) was measured in a VersaMax tunable microplate reader (Molecular Devices, Sunnyvale, CA, USA). cAMP level was calculated using Cayman provided formulas and aided by software located at http://www.myassays.com/(MyAssays Ltd., Haywards Heath, West Sussex, UK) for the output standard line graph and cAMP concentration calculations. […]

[2] = test system: S. invicta sNPF receptor (SisNPFR-C6E8 cell line); test: Pilot study: stimulation of intracellular cAMP production in SisNPFR-C6E8 cell line; assay type: cell-based, Solenopsis invicta
Method: To quantify changes in intracellular cAMP, 1×10^5 cells of SisNPFR-C6E8 were seeded in each well of a 6-well plate and incubated at 37°C in presence of 5% CO2 for 24 h to allow cell attachment. Cell culture medium [F12 K medium with 10% fetal bovine serum and 400 µg/ml of Geneticin] was then replaced with the same fresh medium as above and the cells were grown for additional 48 h until they reached 90–100% confluence. The cells were rinsed twice with F12 K medium only (serum and antibiotic free) and then incubated in 50 µM Ro-20-1724 phosphodiesterase inhibitor (Santa Cruz Biotechnology, Santa Cruz, CA, USA) in F12 K medium. […] After washing, the plate was developed at RT for 2 h using the Ellman’s reagent and the OD (412 nm) was measured in a VersaMax tunable microplate reader (Molecular Devices, Sunnyvale, CA, USA). cAMP level was calculated using Cayman provided formulas and aided by software located at http://www.myassays.com/(MyAssays Ltd., Haywards Heath, West Sussex, UK) for the output standard line graph and cAMP concentration calculations. […] For this, the average absorbance readings for non-specific binding (NSB) and B0 wells were obtained, and the NSB average was deducted from the B0 average to generate the corrected B0 maximum binding value. […] The cAMP concentration of each sample was determined on the basis of the standard curve. […]

Substance | Activity on the receptor (change of forskolin-stimulated cAMP), result in words [1] | Activity on the receptor (change of forskolin-stimulated cAMP), result in words ([1]; listed as honey bee long NPF (NPY)) | EC50 [1] | Stimulation of intracellular cAMP production (without forskolin), result in words [2]
AQRSPSLRLRFa [Drome sNPF1, Drosophila melanogaster sNPF peptide (AAN11060.1)] | not active1 µM | – | – | –
EPEPMARPTRPEIFTSPEELRRYIDHVSDYYLLSGKARYa [Apime NPY, Honey bee (A. mellifera) NPY, long NPF (NP_001161192.1), commercially synthesized] | failed to change the cAMP production; also recorded: not active1 µM | not activated | – | –
SALAAGHLRYa [S. invicta sNPF2] | – | – | 8.6 nM | did not stimulate production of intracellular cAMP
SLRSALAAGHLRFa [Analogous sNP(F), Analog of S. invicta sNPF1 with C-terminal amidated Y switched to F] | eliminates the ligand activity on the receptor | – | – | –
SLRSALAAGHLRYa [S. invicta sNPF1] | decreased cAMP | – | 3.28 nM | did not stimulate production of intracellular cAMP
SPSLRLRFa [Drome sNPF212–19] | not active1 µM | – | – | –
WFGDVNQKPIRSPSLRLRFa [Drome sNPF2, Drosophila melanogaster sNPF peptide (AAN11060.1)] | not active1 µM | – | – | –

Source: article PMC4195672, “The Red Imported Fire Ant (Solenopsis invicta Buren) Kept Y not F: Predicted sNPY Endogenous Ligands Deorphanize the Short NPF (sNPF) Receptor” (PLoS ONE, 2014)
